According to patent publication US12558397B2, “Composition for prevention, amelioration, or treatment of urination-related diseases comprising cephalotocin” (KOREA RESEARCH INSTITUTE OF CHEMICAL TECHNOLOGY, priority 2020, dated 2026):

Experiments:
Format in all cases: cell-based
[1] = target: T1, human oxytocin receptor (Homo sapiens, UniProt P30559); assay: Oxytocin receptor OXTR activity/inhibitory effect, intracellular calcium by calcium dye fluorescence imaging; settings: ECSV304 cells overexpressing human oxytocin receptor, FIGS. 3 and 4
T1 construct: expressed in transfected cells; host or cells: recombinant human epithelial cells, cell line ECSV304 as printed
T1 sequence (P30559 1-389): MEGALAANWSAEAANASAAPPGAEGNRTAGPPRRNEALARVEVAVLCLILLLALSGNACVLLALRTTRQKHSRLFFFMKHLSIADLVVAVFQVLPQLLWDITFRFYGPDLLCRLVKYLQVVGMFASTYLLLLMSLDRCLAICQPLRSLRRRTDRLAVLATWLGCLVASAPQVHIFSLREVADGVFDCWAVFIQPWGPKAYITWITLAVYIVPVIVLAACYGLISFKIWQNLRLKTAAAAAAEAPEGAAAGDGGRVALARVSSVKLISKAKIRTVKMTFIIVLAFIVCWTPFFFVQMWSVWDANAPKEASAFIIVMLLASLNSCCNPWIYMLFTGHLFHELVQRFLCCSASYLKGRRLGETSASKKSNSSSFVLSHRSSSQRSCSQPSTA
Description: Recombinant human epithelial cells overexpressing human oxytocin receptor (Name of cell line: ECSV304) were cultured and treated with cephalotocin at different concentrations at room temperature. The change in intracellular calcium concentration induced by cephalotocin-oxytocin receptor binding was measured by calcium dye fluorescence imaging.
To confirm the receptor activation effect, the response to increasing the intracellular calcium concentration that oxytocin 1 μM may cause was taken as 100%, and the relative magnitude of the response induced when treated with cephalotocin alone without oxytocin was measured
To confirm the receptor inhibitory effect, the response to increasing the intracellular calcium concentration that oxytocin 30 nM may cause was taken as 100% standard, and the relative magnitude of the response induced when treated with oxytocin 30 nM and cephalotocin simultaneously was measured.
(§1) . The results confirming the regulatory effect on the receptors OXTR, V1AR, V1BR and V2R by Octopus vulgaris octopressin are shown in FIGS. 3 and 4, respectively.

[2] = target: T2, human vasopressin V1A receptor (Homo sapiens, UniProt P37288); assay: Vasopressin receptor V1AR activity/inhibitory effect, intracellular calcium by calcium dye fluorescence imaging; settings: CHO cells overexpressing human V1A receptor, FIGS. 3 and 4
T2 construct: expressed in transfected cells; host or cells: CHO (Chinese hamster ovary) cells
Description: Recombinant human vasopressin V1A receptor-overexpressing Chinese hamster ovary cells (cell line name: CHO) were cultured and treated with cephalotocin at different concentrations at room temperature, and the change in intracellular calcium concentration induced by cephalotocin-vasopressin V1A receptor binding was measured by the calcium dye fluorescence imaging method.
To confirm the receptor inhibitory effect, the response to increasing the intracellular calcium concentration that vasopressin 10 nM may cause was taken as 100% standard, and the relative magnitude of the response induced when treated with vasopressin 10 nM and cephalotocin simultaneously was measured.
as §1

[3] = target: T3, human vasopressin V1B receptor (Homo sapiens, UniProt P47901); assay: Vasopressin receptor V1BR activity/inhibitory effect, intracellular calcium by calcium dye fluorescence imaging; settings: RBL cells overexpressing human V1B receptor, FIGS. 3 and 4
T3 construct: expressed in transfected cells; host or cells: RBL (basophilic leukemia) cells
T3 sequence (P47901 1-424): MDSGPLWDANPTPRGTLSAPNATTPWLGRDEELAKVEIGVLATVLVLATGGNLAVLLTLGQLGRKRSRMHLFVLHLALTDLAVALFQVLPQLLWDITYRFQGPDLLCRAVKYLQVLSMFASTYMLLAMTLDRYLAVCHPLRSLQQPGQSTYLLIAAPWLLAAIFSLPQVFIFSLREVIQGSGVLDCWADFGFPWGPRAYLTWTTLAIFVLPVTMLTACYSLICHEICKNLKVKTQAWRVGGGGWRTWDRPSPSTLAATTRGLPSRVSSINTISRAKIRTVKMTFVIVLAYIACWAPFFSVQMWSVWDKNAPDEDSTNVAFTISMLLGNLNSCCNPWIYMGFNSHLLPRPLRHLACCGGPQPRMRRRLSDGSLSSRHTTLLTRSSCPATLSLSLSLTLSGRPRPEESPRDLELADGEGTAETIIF
Description: Recombinant human vasopressin V1B receptor-overexpressing […] basophilic leukemia (cell line name: RBL) was cultured and treated with cephalotocin at different concentrations at room temperature, and the change in intracellular calcium concentration induced by cephalotocin-vasopressin V1B receptor binding was measured by the calcium dye fluorescence imaging method.
The results confirming the regulatory effect on the receptors OXTR, V1AR, V1BR and V2R by Octopus vulgaris octopressin are shown in FIGS. 3 and 4, respectively.

[4] = target: T4, human vasopressin V2 receptor (Homo sapiens, UniProt P30518); assay: Vasopressin receptor V2R activity/inhibitory effect, intracellular cAMP by HTRF; settings: CHO cells overexpressing human V2 receptor, FIGS. 3 and 4
T4 construct: expressed in transfected cells; host or cells: CHO (Chinese hamster ovary) cells
Description: Recombinant human vasopressin V2 receptor-overexpressing Chinese hamster ovary cells (cell line name: CHO) were cultured and treated with cephalotocin at different concentrations at room temperature for 30 minutes, and intracellular cAMP concentration accumulated for 30 minutes by cephalotocin-vasopressin V2 receptor binding was measured by the HTRF fluorescence imaging method. […]. To confirm the receptor inhibitory effect, the response to increasing the intracellular cAMP concentration that vasopressin 0.03 nM may cause for 30 minutes was taken as 100% standard, and the relative magnitude of the response induced when treated with vasopressin 0.03 nM and cephalotocin simultaneously was measured.
as §1

T2 sequence (P37288 whole entry): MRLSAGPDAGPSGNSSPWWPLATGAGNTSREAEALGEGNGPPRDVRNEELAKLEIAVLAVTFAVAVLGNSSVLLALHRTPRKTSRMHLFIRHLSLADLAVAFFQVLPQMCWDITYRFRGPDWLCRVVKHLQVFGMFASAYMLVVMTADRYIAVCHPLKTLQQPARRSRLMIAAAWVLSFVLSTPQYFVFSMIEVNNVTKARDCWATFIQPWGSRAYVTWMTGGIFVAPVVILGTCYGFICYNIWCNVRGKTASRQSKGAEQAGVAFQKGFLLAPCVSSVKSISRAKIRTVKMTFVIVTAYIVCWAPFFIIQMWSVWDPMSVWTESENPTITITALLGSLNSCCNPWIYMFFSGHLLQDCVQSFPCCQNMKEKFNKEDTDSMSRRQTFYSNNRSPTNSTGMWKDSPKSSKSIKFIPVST

octopressin
does not regulate: Regulation (activation/inhibition) of OXTR [1] | Regulation (activation/inhibition) of V1AR [2] | Regulation (activation/inhibition) of V1BR [3] | Regulation (activation/inhibition) of V2R [4]
